# Results from patent US20220233743A1, “WOUND CLOSURE ENHANCEMENT METHODS AND MATERIALS VIA MANIPULATION OR AUGMENTATION OF LIPIN-1” (Board of Supervisors of Louisiana State University and …, priority 2019, published 2022).
# Tested on: BMDMs
# Assay: Central carbon analysis of IL-4 treated BMDMs
# Assay type: cell-based, mouse
# Settings: 40 ng/ml IL-4 for 4 h
# Experimental: BMDMs from lipin-1^mKO and littermate control mice were seeded at a density of 1×10^6/ml into Falcon tubes (60818-500; VWR). Cells were either treated with or without IL-4 (40 ng/ml) for 4 h. Cells were then collected and spun at 400×g for 5 min. Cell pellets were sent to Creative Proteomics (Shirley, N.Y.) for central carbon analysis.
# Macrophages need to align individual metabolic pathways to effectively respond to stimuli. The inventors wanted to understand the consequences of lipin-1 activity on immunometabolic responses in macrophages after stimulation with IL-4. WT and lipin-1 KO macrophages were stimulated with and without 40 ng/ml IL-4 for 4 h. Cell pellets were then sent to Creative Proteomics for central carbon analysis to determine the abundance of metabolites in major metabolic pathways, such as glycolysis, TCA cycle, and PPP. At baseline, lipin-1-deficient macrophages have an altered metabolism compared with WT macrophages. Lipin-1 KO BMDMs have multiple elevated glycolytic metabolites compared with WT BMDMs (FIGS. 10 and 43). […] The inventors also see an increase in metabolites within the PPP (FIG. 10). Upregulation of the PPP can result in increased NADPH (FIG. 10).
# The alterations in metabolism in lipin-1-deficient BMDMs at baseline were exacerbated upon stimulation with IL-4. […] The TCA cycle generates electron carriers (NADH) that are used by the electron transport chain to generate ATP as part of oxidative phosphorylation. […] Lipin-1-deficient macrophages have an increase in the initial metabolites of the PPP, 6P-gluconate. The conversion of glucose-6P to 6P-gluconate generates NADPH, which can be used in lipid synthetic pathways (FIG. 10). […] Complete central carbon analysis can be found is found below: […]
substance,measurement,setting,value
"IL-4: cytokine IL-4 (R&D Biosystems, 404-ML-050) used to stimulate macrophages; optional component of the claimed composition","6P-Gluconate, Mean",KO (lipin-1mKO) BMDMs,0.02073
same,"ADP, Mean",KO (lipin-1mKO) BMDMs,0.6171
same,"ADP-Glucose, Mean",KO (lipin-1mKO) BMDMs,0.0026
same,"AMP, Mean",KO (lipin-1mKO) BMDMs,2.121
same,"ATP, Mean",KO (lipin-1mKO) BMDMs,0.24
same,"Acetyl-CoA, Mean",KO (lipin-1mKO) BMDMs,0.00588
same,"Acetyl-Phosphate, Mean",KO (lipin-1mKO) BMDMs,0.4686
same,"Acetylglucosamine-1P, Mean",KO (lipin-1mKO) BMDMs,0.1085
same,"Acetylglucosamine-6P, Mean",KO (lipin-1mKO) BMDMs,0.4128
same,"Citrate, Mean",KO (lipin-1mKO) BMDMs,17.69
same,"DHAP, Mean",KO (lipin-1mKO) BMDMs,0.05052
same,"Erythrose-4P, Mean",KO (lipin-1mKO) BMDMs,0.03703
same,"Fructose-1,6-bisP, Mean",KO (lipin-1mKO) BMDMs,0.02422
same,"Fructose-1P, Mean",KO (lipin-1mKO) BMDMs,0.00893
same,"Fructose-6P, Mean",KO (lipin-1mKO) BMDMs,0.05762
same,"Fumarate, Mean",KO (lipin-1mKO) BMDMs,15.48
same,"GDP, Mean",KO (lipin-1mKO) BMDMs,0.1098
same,"GMP, Mean",KO (lipin-1mKO) BMDMs,14.33
same,"GTP, Mean",KO (lipin-1mKO) BMDMs,0.0303
same,"Glucosamine-6P, Mean",KO (lipin-1mKO) BMDMs,0.03932
same,"Glucose, Mean",KO (lipin-1mKO) BMDMs,70.05
same,"Glucose-1,6-bisP, Mean",KO (lipin-1mKO) BMDMs,0.04135
same,"Glucose-1P, Mean",KO (lipin-1mKO) BMDMs,0.03615
same,"Glucose-6P, Mean",KO (lipin-1mKO) BMDMs,0.09843
same,"Glyceraldehyde-3P, Mean",KO (lipin-1mKO) BMDMs,0.1128
same,"Glycerate-2,3P, Mean",KO (lipin-1mKO) BMDMs,0.00052
same,"Glycerate-2P, Mean",KO (lipin-1mKO) BMDMs,0.00902
same,"Glycerate-3P, Mean",KO (lipin-1mKO) BMDMs,0.07625
same,"Glycerol-3P, Mean",KO (lipin-1mKO) BMDMs,0.8631
same,"Glycolate, Mean",KO (lipin-1mKO) BMDMs,20.92
same,"Hs-CoA, Mean",KO (lipin-1mKO) BMDMs,0.0443
same,"Isocitrate, Mean",KO (lipin-1mKO) BMDMs,0.2094
same,"Latate, Mean",KO (lipin-1mKO) BMDMs,1872
same,"Malate, Mean",KO (lipin-1mKO) BMDMs,73.43
same,"Mannose-6P, Mean",KO (lipin-1mKO) BMDMs,0.01255
same,"NAD+, Mean",KO (lipin-1mKO) BMDMs,0.3551
same,"NADH, Mean",KO (lipin-1mKO) BMDMs,0.3515
same,"NADP+, Mean",KO (lipin-1mKO) BMDMs,0.1139
same,"NADPH, Mean",KO (lipin-1mKO) BMDMs,0.1752
same,"PEP, Mean",KO (lipin-1mKO) BMDMs,0.04492
same,"Phosphocreatine, Mean",KO (lipin-1mKO) BMDMs,0.2338
same,"Pyruvate, Mean",KO (lipin-1mKO) BMDMs,35.61
same,"Ribose-1,5bisP, Mean",KO (lipin-1mKO) BMDMs,0.00195
same,"Ribose-5P, Mean",KO (lipin-1mKO) BMDMs,0.07803
same,"Ribulose-1,5bisP, Mean",KO (lipin-1mKO) BMDMs,0.02412
same,"Ribulose-5P, Mean",KO (lipin-1mKO) BMDMs,0.1828
same,"Sedoheptulose-7P, Mean",KO (lipin-1mKO) BMDMs,0.05303
same,"Succinate, Mean",KO (lipin-1mKO) BMDMs,36.15
same,"Succinyl-CoA, Mean",KO (lipin-1mKO) BMDMs,0.0234
same,"UDP, Mean",KO (lipin-1mKO) BMDMs,0.1803
same,"UDP-Glucose, Mean",KO (lipin-1mKO) BMDMs,0.5266
same,"UDP-acetylglucosamine, Mean",KO (lipin-1mKO) BMDMs,0.9395
same,"UMP, Mean",KO (lipin-1mKO) BMDMs,16.84
same,"UTP, Mean",KO (lipin-1mKO) BMDMs,4.409
same,"cyclic-ADPR, Mean",KO (lipin-1mKO) BMDMs,0.3267
same,"cyclic-AMP, Mean",KO (lipin-1mKO) BMDMs,0.0031
same,"cyclic-UMP, Mean",KO (lipin-1mKO) BMDMs,0.00447
same,"α-Ketoglutarate, Mean",KO (lipin-1mKO) BMDMs,3.985
same,"6P-Gluconate, Mean",WT BMDMs,0.01622
same,"ADP, Mean",WT BMDMs,0.8758
same,"ADP-Glucose, Mean",WT BMDMs,0.00298
same,"AMP, Mean",WT BMDMs,2.316
same,"ATP, Mean",WT BMDMs,0.2736
same,"Acetyl-CoA, Mean",WT BMDMs,0.00738
same,"Acetyl-Phosphate, Mean",WT BMDMs,0.496
same,"Acetylglucosamine-1P, Mean",WT BMDMs,0.1361
same,"Acetylglucosamine-6P, Mean",WT BMDMs,0.5132
same,"Citrate, Mean",WT BMDMs,15.89
same,"DHAP, Mean",WT BMDMs,0.05342
same,"Erythrose-4P, Mean",WT BMDMs,0.05778
same,"Fructose-1,6-bisP, Mean",WT BMDMs,0.0196
same,"Fructose-1P, Mean",WT BMDMs,0.00392
same,"Fructose-6P, Mean",WT BMDMs,0.06408
same,"Fumarate, Mean",WT BMDMs,19.48
same,"GDP, Mean",WT BMDMs,0.1479
same,"GMP, Mean",WT BMDMs,15.29
same,"GTP, Mean",WT BMDMs,0.04348
same,"Glucosamine-6P, Mean",WT BMDMs,0.04035
same,"Glucose, Mean",WT BMDMs,53.46
same,"Glucose-1,6-bisP, Mean",WT BMDMs,0.04287
same,"Glucose-1P, Mean",WT BMDMs,0.03848
same,"Glucose-6P, Mean",WT BMDMs,0.1044
same,"Glyceraldehyde-3P, Mean",WT BMDMs,0.1365
same,"Glycerate-2,3P, Mean",WT BMDMs,0.00063
same,"Glycerate-2P, Mean",WT BMDMs,0.00803
same,"Glycerate-3P, Mean",WT BMDMs,0.0653
same,"Glycerol-3P, Mean",WT BMDMs,0.982
same,"Glycolate, Mean",WT BMDMs,19.94
same,"Hs-CoA, Mean",WT BMDMs,0.0517
same,"Isocitrate, Mean",WT BMDMs,0.1146
same,"Latate, Mean",WT BMDMs,2685
same,"Malate, Mean",WT BMDMs,87.07
same,"Mannose-6P, Mean",WT BMDMs,0.01458
same,"NAD+, Mean",WT BMDMs,0.3884
same,"NADH, Mean",WT BMDMs,0.5159
same,"NADP+, Mean",WT BMDMs,0.1431
same,"NADPH, Mean",WT BMDMs,0.1122
same,"PEP, Mean",WT BMDMs,0.03792
same,"Phosphocreatine, Mean",WT BMDMs,0.2747
same,"Pyruvate, Mean",WT BMDMs,37.78
same,"Ribose-1,5bisP, Mean",WT BMDMs,0.00238
same,"Ribose-5P, Mean",WT BMDMs,0.08472
same,"Ribulose-1,5bisP, Mean",WT BMDMs,0.02488
same,"Ribulose-5P, Mean",WT BMDMs,0.2631
same,"Sedoheptulose-7P, Mean",WT BMDMs,0.04902
same,"Succinate, Mean",WT BMDMs,52.07
same,"Succinyl-CoA, Mean",WT BMDMs,0.02933
same,"UDP, Mean",WT BMDMs,0.2351
same,"UDP-Glucose, Mean",WT BMDMs,0.5467
same,"UDP-acetylglucosamine, Mean",WT BMDMs,1.096
same,"UMP, Mean",WT BMDMs,18
same,"UTP, Mean",WT BMDMs,5.48
same,"cyclic-ADPR, Mean",WT BMDMs,0.3519
same,"cyclic-AMP, Mean",WT BMDMs,0.00362
same,"cyclic-UMP, Mean",WT BMDMs,0.00372
same,glycolytic and TCA cycle metabolites on IL-4 stimulation,WT BMDMs,significant increase
same,"α-Ketoglutarate, Mean",WT BMDMs,3.785
same,TCA metabolite succinate on IL-4 stimulation,lipin-1 KO macrophages,decrease
same,isocitrate on IL-4 stimulation,lipin-1 KO macrophages,significant increase
